Entries after “also recorded” stand apart in the source; their conditions may differ.

This note sets out measurements from patent publication US11136370B2, “Compositions and methods for thrombin generation assay” (The Scripps Research Institute, priority 2016, dated 2021).

One assay deals with thrombin generation (TG). It is filed as biochemical, human. The settings on record: recalcified PRP containing CTI. As for the experimental part: TG in PRP or reconstituted PRP was evaluated as known to those skilled in the art. Native PRP was prepared from blood collected into final 12.9 mM trisodium citrate by centrifugation at 250 g for 10 min at 25° C. The platelet count was adjusted to 180×10^3/μl by dilution with homologous PPP obtained by centrifuging PRP for 10 min at 1,500 g. CTI was added at 30-50 μg/ml depending on calibrated potency as assessed by FXIIa inhibition. Reconstituted PRP was prepared with washed platelets prepared from normal PRP by adding ⅕th volume of acid citrate-dextrose (71 mM citric acid, 85 mM trisodium citrate, and 111 mM dextrose, pH 4.5) and 5 U/ml apyrase; following centrifugation at 1,500 g for 10 minutes at 25° C., the platelet pellet was resuspended into PPP lacking FVII (George King Bio-Medical) or FIX (Haematologic Technologies) to give a final platelet count of 180·103/μl PRP was mixed with varying concentrations of rTF and/or 20 pM FIXa in 96-well microtiter plates. The reaction was started by adding 18 mM CaCl2 with 360 μM of the thrombin substrate benzyloxycarbonyl-glycyl-glycyl-L-arginine coupled to the fluorogenic group 7-amido-4-methylcoumarin (Gly-Gly-Arg-AMC; Bachem Americas, Torrance, Calif.). Fluorescence was measured continuously at 37° C. for up to 40 min in a spectrofluorometer (355/460 nm excitation/emission). The rate of fluorescence intensity increase as a function of time (dF/dt) was calculated with Turbo Delphi 2006 (Borland Software Corporation, Austin, Tex.) and converted to thrombin-equivalent concentration (nM) using a calibration curve. The endogenous thrombin potential (ETP) of samples, i.e. total generated thrombin activity, was determined from the area under the TG curve. When specified, TG was measured with a discontinuous 2-stage assay with a detection limit of 5 pM. For this, TG was induced by 0.15 pM rTF and 18 mM CaCl2 in reconstituted FVII-deficient PRP including 30 μg/ml CTI with 400 pM WT FVIIa or iFVIIa without or with 20 pM FIXa. After incubation for up to 11 min at 37° C., reactions were terminated by adding 20 mM EDTA and generated thrombin was measured using the highly sensitive thrombin substrate H-D-CHA-Ala-Arg-AMC.2AcOH (Pefafluor TH, Pentapharm, Basel, Switzerland) at 50 μM concentration. In other experiments, TG was induced by TFiFVIIa-FXa-TFPI or TF-iFVIIa-FXa-NAPc2. These stable complexes were pre-formed by incubating 5 nM FXa, 10 nM TF, 10 nM iFVIIa and 40 nM TFPI or NAPc2 in the presence of 2.5 mM CaCl2 for 2 min at 37° C. Complexes were added into FVII-deficient PRP, followed by incubation for 8 min at 37° C.
PRP was prepared from blood collected into trisodium citrate (final concentration 0.0129 M) by centrifugation for at 250 g for 10 min at 25° C.; the platelet count was adjusted at 180.103 per μl by diluting with homologous platelet-poor plasma (PPP) obtained by centrifuging PRP for an additional 10 min at 1,500 g. When indicated, CTI was added at 30 to 50 μg/ml depending on calibrated potency measured by FXIIa inhibition. Reconstituted PRP was prepared by adding normal washed platelets into PPP (without or with CTI) lacking FVII, FVIII (both from George King Bio-Medical, Overland Park, Kans.) or FIX (Haematologic Technologies). […] generation in PRP was measured as described by Hemker et al. 53 μl of PRP was mixed in 96-well microtiter plates with 15 μl of a solution containing rTF and/or one of the intrinsic coagulation pathway proteases—FXIIa, FXIa or FIXa—to achieve the indicated final concentrations. Antibodies or inhibitors were also added at this point at the concentration indicated for each specific case. The reaction was started by adding between 15 and 20 μl of 100 mM CaCl2 and 2 mM fluorogenic substrate, benzyloxycarbonyl-glycyl-glycyl-L-arginine-7-amido-4-methylcoumarin (Gly-Gly-Arg-AMC; Bachem Americas, Torrance, Calif.).

Another assay concerns immobilized rTF. Kind of assay: Blood perfusion over immobilized rTF, volume of platelet aggregates and fibrin. It is filed as cell-based, human. The method, then: (§1) Glass coverslips treated with 0.2 mg/ml poly-L-lysine for 6 h at 37° C. were coated with rTF for 18-20 hours at 37° C. or 2.5 mg/ml acid-insoluble type I collagen for 2 hours at 22-25° C. Then they were rinsed with pH 7.4 buffered-saline, assembled in a rectangular flow chamber with a 125 μm-high silicon gasket and positioned on a confocal microscope stage for analysis. Venous blood for testing was collected into final 10.9 mM trisodium citrate using a plastic syringe for normal volunteers or Vacutainer tubes (Becton Dickinson, Buccinasco, Milan) for patients and controls. Before perfusion at a flow rate yielding an initial wall shear rate of 300 s^−1 maintained with a syringe pump (Harvard Apparatus, Holliston, Mass.), CaCl2 was added to obtain 1.29 mM Ca^2+. In the blood of patients—potentially hypercoagulable—and related controls, lepirudin (50 nM) was also added to neutralize thrombin possibly generated before testing. […] For experiments with WT and mutant FVIIa, cells from group O citrated blood, containing 50 μg/ml CTI and 10 U/ml (ADPase activity) apyrase, were washed free of plasma by sequential centrifugation steps at 1500 g for 7 min. After the first, plasma was replaced with an equal volume of calcium-free Tyrode buffer, pH 6.5, with 5 U/ml apyrase; then with buffer and 1.25 U/ml apyrase; and finally with human FVII deficient plasma (George King Bio-Medical, Overland Park, Kans.) up to the original blood volume. Cell count results in reconstituted and native blood were within 90%. Experiments in Milan (Italy) were performed with a Leica TCS SP5 microscope and HCX PL APO 63x/1.40 NA oil immersion objective (Leica Microsystems GmbH, Wetzlar, Germany); in La Jolla (California) with a Zeiss Axiovert 135M/LSM 410 and Plan-Apochromat 40x/1.40 NA oil immersion objective (Carl Zeiss AG, Oberkochen, Germany).
(§2) Platelets adhering and aggregating onto the surface were visualized by adding quinacrine-HCl (mepacrine; 10 μg/ml; Sigma-Aldrich) to blood. Deposited fibrin was visualized with Alexa Fluor 546-labeled (Invitrogen) mouse monoclonal IgG (50 μg/ml) specific for the B chain of mouse and human fibrin (HB-8545; ATCC). Blood was perfused for 3-5 min at 37° C. with a syringe pump (Harvard Apparatus Inc.) at a flow rate yielding an initial (in the unobstructed flow path) wall shear rate of 300 s^−1. This was followed by buffer (DMEM) for 2 minutes to facilitate fibrin quantification by confocal z section analysis using a Zeiss Axiovert 135M/LSM 410 microscope (Carl Zeiss) and Plan-Apochromat×63/1.40 NA oil immersion objective. Image analysis was performed with NIH ImageJ64. Deposited fibrin volume was measured from confocal sections collected at 4 preset positions in the flow chamber. Total volume of deposited platelets and fibrin was calculated from the sum of the respective area coverage per section multiplied by the z interval (2 μm). All studies involving human subjects were conducted following institutionally approved protocols.
TF-coated glass coverslips were perfused with venous blood at a wall shear rate of 300 s^−1. A Zeiss Axiovert 135M/LSM 410 and Plan-Apochromat 40x/1.40 NA oil immersion objective (Carl Zeiss AG, Oberkochen, Germany) was used to visualize platelets/leukocytes and fibrin stained with mepacrine and a specific anti-body, respectively. Image analysis to calculate volumes was performed as described herein.
Glass coverslips treated with 0.2 mg/ml poly-L-lysine for 6 h at 37° C. were coated with rTF for 18-20 hours at 37° C., rinsed with buffered-saline and assembled in a rectangular flow chamber with a 125 μm-high silicon gasket. Venous blood was collected into final 10.9 mM trisodium citrate using a plastic syringe. CaCl2 was added to obtain 1.29 mM Ca^2+ before perfusion at a wall shear rate of 300 s-1 maintained with a syringe pump (Harvard Apparatus, Holliston, Mass.). […]

The subject of assay [1] is fibrillar collagen type I. The experiment in a line: Blood perfusion over fibrillar collagen type I, volume of platelet aggregates and fibrin. It counts as cell-based, human. The following applies: blood of treated patients, collagen surface. As for the experimental part: The volume of platelet aggregates and deposited fibrin was measured by confocal microscopy. Statistical analysis by one-way ANOVA and Tukey post-test. *P<0.05; **P<0.01; ***P<0.001.
as §1, with “Cell count results in reconstituted and native blood were within 90%.” left out
as §2, with “Blood was perfused for 3-5 min at 37° C. with a syringe pump (Harvard Apparatus Inc.) at a flow rate yielding an initial (in the unobstructed flow path) wall shear rate of 300 s^−1.” left out, “Image analysis was performed with NIH ImageJ64.” left out, “All studies involving human subjects were conducted following institutionally approved protocols.” left out

Another assay relates to initial TG. The experiment in a line: Discontinuous 2-stage assay of initial TG in platelet-poor plasma. It is filed as biochemical, human. The method, then: FIG. 21 illustrates, in accordance with embodiments herein, TG assays in FVIII-deficient PPP without or with anti-FVIII inhibitors. (A) Initial TG in discontinuous 2-stage assay was induced by adding 150 fM rTF/200 pM FIXa and 5 μM PL, followed by incubation for 5 min at 37° C. Each column indicates mean+SEM (n=3) of generated FIIa. (B) Comparison of dose-response curve of added FVIII in TG in FVIII-deficient plasma by discontinuous 2-stage assay with that by continuous assay.
FIG. 22 illustrates, in accordance with embodiments herein, FVIIIa-dependent and -independent TG in plasma from Coumadin-treated patients. FVIIIa-dependent TG was induced by adding 150 fM rTF/200 pM FIXa with 1.3 μM PL, while FVIIIa-independent TG was by 1.2 pM rTF with 1.3 μM PL. Each column indicates mean+SEM (n=3) of generated FIIa after 3 min of incubation.
To establish highly sensitive TG assay method, the inventors made a screening of FIIa substrates with high affinity and turnover rate by determining kinetic parameters and then constructed a calibration curve with known concentrations of a FIIa calibrator. In the studies, they found two fluorogenic substrates H-D-cyclohexyl-alanyl-alanyl-argininyl-amidomethylcoumarin (AMC) (Pefafluor TH) and butyloxycarbonyl-valyl-prolinyl-argininyl-AMC (V-P-R-AMC) were suitable for quantifying much low concentrations of FIIa activity with a detection limit of ˜5 pM (FIG. 17). Initial TG was measured with “discontinuous 2-stage assay” using the high sensitive substrate. Briefly, TG was initiated by combined addition of rTF and FIXa with 18 mM CaCl2 into plasma, followed by incubation for up to 5 min at 37° C. After incubation, reactions were terminated with 20 mM EDTA and generated FIIa was measured using the highly sensitive FIIa substrate Pefafluor TH or V-P-R-AMC. In the assays, combined addition of 150 fM rTF and 200 pM FIXa time-dependently produced FIIa in normal platelet-poor plasma (PPP) prepared from healthy donors (FIG. 18A). […] To further validate the assay method, reproducibility of the TG assay method was examined by determination of intra-assay and inter-assay coefficient of variations (CV) using manual assay protocol.

Another assay concerns TF-FVIIa. The experiment in a line: FXa generation by TF-FVIIa in reactions with purified components. It counts as biochemical, human. The settings on record: reconstituted system.

`COc1ccc(-n2nc(C(N)=O)c3c2C(=O)N(c2ccc(N4CCCCC4=O)cc2)CC3)cc1` [apixaban]: the “difference in dose response between rivaroxaban and apixaban” value in the assay with thrombin generation (TG) was around 3 fold.
`CC(=O)CC(c1ccccc1)c1c(O)c2ccccc2oc1=O` (stereo not shown) [warfarin]: in the assay on immobilized rTF (blood of treated patients, high density TF surface), the fibrin deposition result is reported as “significantly reduced”. Moreover, the “volume of deposited fibrin” value in the assay with immobilized rTF (blood of treated patients, higher rTF coating concentration, 300 s^-1, 5 min) was “markedly reduced fibrin formation”. The “volume of deposited fibrin vs untreated controls” value with immobilized rTF (blood of treated patients, lower rTF coating concentration, 300 s^-1, 5 min) was “markedly smaller”. Also, the “volume of platelet aggregates vs controls” value in the assay with immobilized rTF (blood of treated patients, rTF coating 20 and 40 pM) was “significantly reduced on both rTF surfaces”. Moreover, in assay [1], the “mean volume of platelet aggregates vs controls” value is reported as “not significantly different”. In assay [1], the “volume of deposited fibrin vs controls” value is recorded as “significantly reduced; also recorded: markedly reduced”. Moreover, in the assay with initial TG (1.2 pM rTF alone without FIXa, patient plasma), the “FVIIIa-independent TG” value is listed as “abolished even at lower INR”. Moreover, the “initial FVIIIa-dependent TG” value with initial TG (patient plasma with INR 1.5, 150 fM rTF/200 pM FIXa, 1.3 μM PL, 3 min) is recorded as ~15 % of normal plasma; in the assay on initial TG (patient plasma with INR 2.9, 150 fM rTF/200 pM FIXa, 1.3 μM PL, 3 min), ~5 % of normal plasma; in the assay with initial TG (patient plasma with much higher INR values), “completely abolished”.
Consider “TFPI with protein S: TFPI with protein S (PS) cofactor”, for which the “reduction of FXa produced by TF-FVIIa” value in the assay with TF-FVIIa is listed as above 75%.
“recombinant [Leu1-Thr2]-63-desulfohirudin [lepirudin]”: the “effect on deposited fibrin volume in the flow chamber” value in the assay with immobilized rTF (lepirudin 50 nM, preliminary experiments) is “limited effect”.
